# In patent publication US20100324123A1, “GLMS RIBOSWITCHES, STRUCTURE-BASED COMPOUND DESIGN WITH GLMS RIBOSWITCHES, AND METHODS AND COMPOSITIONS FOR USE OF AND WITH GLMS RIBOSWITCHES” (Yale University, priority 2006, published 2010):
# Entries after “also recorded” stand apart in the source; their conditions may differ.
# Experiments:
# [1] = system: glmS ribozymes; conditions: cited from earlier work
# [2] = molecular target: homologous ribozyme from Bacillus subtilis; conditions: Bacillus subtilis glmS ribozyme; read-out: apparent dissociation constant (KD); cited from earlier work
# [3] = system: glmS ribozyme; test: high-throughput fluorescence screen with bimolecular glmS ribozyme (fluorescein/cy3-labeled substrate); format: biochemical, S. aureus; conditions: for Fl21 h/Flg h: high-throughput fluorescence screen, fluorescence ratio
# [4] = system: glmS ribozyme; test: activity by electrophoretic in-line probing (gel electrophoresis methods); format: binding
# [5] = molecular target: glmS ribozyme from B. cereus; conditions: read-out: apparent dissociation constant (KD); cited from earlier work
# [6] = system: glmS ribozyme from B. cereus; test: glmS ribozyme self-cleavage assay (5'-32P-labeled 200-nucleotide construct, PAGE); format: biochemical, Bacillus cereus; conditions: for ribozyme activation / self-cleavage (in words): FIG. 2b: 1 mM effector, 30 minutes, FIG. 2c: 100 μM, 50 mM HEPES pH 7.5; for ribozyme self-cleavage activity as fraction of the activity exhibited by GlcN6P: FIG. 2c, each at 100 μM
# Protocol: Differences from GlcN6P can be seen by comparing the structures to GlcN6P. b) Yields of ribozyme cleavage assays using a 200-nucleotide glmS RNA construct incubated with GlcN6P (1) or with various compounds as indicated. 5′ ^32P-labeled precursor (Pre) RNAs were incubated for 30 minutes in the presence of 1 mM effector as noted for each lane. […] Rate constants for the remaining compounds are estimated to be less than 0.001 min^−1.
# The molecular recognition characteristics of the glmS ribozyme was found by determining the effects of GlcN6P and various GlcN6P analogs on the self-cleavage activity of a 200-nucleotide glmS ribozyme construct from B. cereus (FIG. 1). KD values for each ligand were determined by plotting ribozyme rate constants versus ligand concentrations (Experimental Section). […] The amine group of the ligand is also known to be essential for ribozyme function (Winkler 2004; McCarthy 2005). […] Therefore, a series of analogs were tested (FIG. 2) to probe the importance of structural conformation of GlcN6P and of individual functional groups on the pyranose ring.
# The glmS ribozyme from B. cereus (FIG. 1a) was generated by in vitro transcription as described previously, (Roth 2006) 5′-^32P-radiolabeled, (Lim 2006) and purified by PAGE. Rate constants were established using methods and reaction conditions similar to those described previously (Roth 2006) with the exception that reaction mixtures contained 50 mM HEPES buffer (pH 7.5 at 23° C.) in place of Tris-HCl buffer. Ligand concentrations and incubation times used are defined for each assay. Ribozyme activity was established by quantitating the amounts of cleaved and uncleaved RNAs using a Typhoon imager (Amersham Biosciences).
smiles,measurement,setting,value
"C[N+](C)(C)C1C(O)O[C@H](COP(=O)(O)O)C(O)[C@@H]1O (stereo partly shown) [Me3N-Gln 6P, 2-(trimethylammonio)-2-deoxyglucose 6-phosphate]",melting point,,185 to 187 °C (dec.)
N[C@H]1C(O)O[C@H](COS(=O)(=O)O)[C@@H](O)[C@@H]1O (stereo partly shown) [glucosamine-6-sulphate],"concentration needed to induce ribozyme activation to the same extent as GlcN6P, relative to GlcN6P",[1],~100 fold
"N[C@H]1C(O)O[C@H](COP(=O)(O)O)[C@@H](O)[C@@H]1O (stereo partly shown) [Compound 1, glucosamine-6-phosphate, reference compound]",Kd,[2],~200 µM
same,Fl21 h/Flg h,[3],3.36
same,increase of fluorescence intensity of fluoroscein,"[3]; ~160 μM glucosamine-6-phosphate, minimum of 10 hours incubation",~4 fold
same,Activity by electrophoretic in-line probing,[4],Yes
same,Kd,[5],~200 µM
"NC1O[C@H](COP(=O)(O)O)[C@@H](O)[C@H](O)[C@H]1O (stereo partly shown) [Compound 7, 1-amino-1-deoxyglucose 6-phosphate]",Fl21 h/Flg h,[3],1.00
same,Activity by electrophoretic in-line probing,[4],No
same,ribozyme activation / self-cleavage (in words),[6],does not support ribozyme cleavage; also recorded: lowest amount of cleavage
NCCO [ethanolamine],ribozyme activation (in words),[1],orders of magnitude less effective than GlcN6P
"C[N+](C)(C)[C@@H](C=O)[C@@H](O)[C@H](O)[C@H](O)CO [Me3N-Gln, 2-deoxy-2-(trimethylammonio)-D-glucose]",Fl21 h/Flg h,[3],1.17
same,Activity by electrophoretic in-line probing,[4],No
"N[C@@H](C=O)[C@@H](O)[C@@H](O)[C@H](O)COP(=O)(O)O [Compound 2, 2-amino-2-deoxy-D-galactose 6-phosphate]",Fl21 h/Flg h,[3],1.69
same,ribozyme activation / self-cleavage (in words),[6],does not induce activity
NC(CO)CO [serinol],ribozyme activation (in words),[1],orders of magnitude less effective than GlcN6P
"CNC1C(O)O[C@H](COP(=O)(O)O)C(O)[C@@H]1O (stereo partly shown) [Compound 9, 2-methylamino-2-deoxyglucose 6-phosphate]",Fl21 h/Flg h,[3],3.49
same,melting point,,185 to 187 °C (dec.)
same,Activity by electrophoretic in-line probing,[4],Yes
same,ribozyme activation / self-cleavage (in words),[6],only a modest reduction in efficiency compared to GlcN6P
"NC1C(O)O[C@H](COP(=O)(O)O)C(O)[C@H]1O (stereo partly shown) [Compound 13, 2-amino-2-deoxyallose 6-phosphate]",ribozyme activation / self-cleavage (in words),[6],activity that is similar to GlcN6P
O=C[C@H](O)[C@@H](O)[C@H](O)[C@H](O)COP(=O)(O)O [glucose-6-phosphate],ribozyme activation (in words),[1],completely fails to trigger ribozyme action
"NC1C(O)O[C@H](COP(=O)(O)S)C(O)[C@@H]1O (stereo partly drawn) [Compound 4, 2-amino-2-deoxy-D-glucose 6-thiophosphate]",Fl21 h/Flg h,[3],1.11
same,Activity by electrophoretic in-line probing,[4],No
same,reduction of the rate constant of ribozyme cleavage compared to 1,[6],approximately two orders of magnitude
"N[C@@H](CO)[C@@H](O)[C@H](O)[C@H](O)COP(=O)(O)O [Compound 3, 2-amino-2-deoxy-D-glucitol-6-phosphate]",Fl21 h/Flg h,[3],0.80
same,Activity by electrophoretic in-line probing,[4],No
same,ribozyme activation / self-cleavage (in words),[6],no detectable activity
"N[C@H]1CO[C@H](COP(=O)(O)O)[C@@H](O)[C@@H]1O [Compound 8, 2-amino-1,5-anhydro-2-deoxyglucitol 6-phosphate]",Fl21 h/Flg h,[3],2.52
same,melting point,,185 to 187 °C (dec.)
same,Activity by electrophoretic in-line probing,[4],Yes
same,ribozyme self-cleavage activity as fraction of the activity exhibited by GlcN6P,[6],1/70
"CO[C@@H]1O[C@H](COP(=O)(O)O)[C@@H](O)[C@H](O)[C@H]1N [Compound 5, methyl 2-amino-2-deoxy-β-D-glucose 6-phosphate]",Fl21 h/Flg h,[3],1.02
same,Activity by electrophoretic in-line probing,[4],No
same,ribozyme activation / self-cleavage (in words),[6],precludes analog binding
"Cl.N[C@H]1C(O)O[C@H](CO)[C@@H](O)[C@@H]1O (stereo partly drawn) [Gln com, D-(+)-glucosamine hydrochloride, reference compound]",GlcN6P bound by the ribozyme more tightly than glucosamine,[1],> 1000 fold
same,loss of ligand affinity (in words),[1]; removal of the phosphate group,an even greater loss of ligand affinity
same,Fl21 h/Flg h,[3],1.87
same,Activity by electrophoretic in-line probing,[4],Yes
"N[C@@H]1[C@@H](O)[C@H](O)[C@@H](COP(=O)(O)O)O[C@@H]1O [Gln6P com, reference compound]",Fl21 h/Flg h,[3],2.24
same,Activity by electrophoretic in-line probing,[4],Yes
"N[C@H](C=O)[C@@H](O)[C@H](O)[C@H](O)COP(=O)(O)O [Compound 12, 2-amino-2-deoxy-D-mannose 6-phosphate]",Fl21 h/Flg h,[3],2.89
same,Activity by electrophoretic in-line probing,[4],Yes
same,ribozyme self-cleavage activity as fraction of the activity exhibited by GlcN6P,[6],1/35
"CO[C@H]1O[C@H](COP(=O)(O)O)[C@@H](O)[C@H](O)[C@H]1N [Compound 6, methyl 2-amino-2-deoxy-α-D-glucose 6-phosphate]",Fl21 h/Flg h,[3],1.07
same,Activity by electrophoretic in-line probing,[4],No
same,ribozyme activation / self-cleavage (in words),[6],precludes analog binding
"CC(=O)N[C@H]1C(O)O[C@H](COP(=O)(O)O)[C@@H](O)[C@@H]1O (stereo partly drawn) [AcNGln 6P, N-acetyl-D-glucosamine 6-phosphate]",Fl21 h/Flg h,[3],2.28
same,Activity by electrophoretic in-line probing,[4],Weakly
